Patent US20240368156A1, “2-AZABICYCLO[2.2.1]HEPTANE KRAS INHIBITORS” (INCYTE CORPORATION, priority 2023, published 2024)

How the values were obtained:
KRAS G12V = KRAS G12V (Homo sapiens, UniProt P01116, G12V); experiment: GDP-GTP exchange assay (bodipy-GDP/GppNHp, SOS1), KRAS G12V; type: biochemical; conditions: 2.5 nM bodipy-loaded KRAS G12V, 3 h incubation after adding GppNHp-SOS1; for certain compounds the most potent isomer is quoted; read-out: KRAS_G12V exchange assay IC50
Experimental: (§1) The inhibitor potency of the exemplified compounds was determined in a fluorescence based guanine nucleotide exchange assay, which measures the exchange of bodipy-GDP (fluorescently labeled GDP) for GppNHp (Non-hydrolyzable GTP analog) to generate the active state of KRAS in the presence of SOS1 (guanine nucleotide exchange factor). Inhibitors were serially diluted in DMSO and a volume of 0.1 μL was transferred to the wells of a black low volume 384-well plate. 5 µL/well volume of bodipy-loaded KRAS G12D diluted to 2.5 nM in assay buffer (25 mM Hepes pH 7.5, 50 mM NaCl, 10 mM MgCl2 and 0.01% Brij-35) was added to the plate and pre-incubated with inhibitor for 4 h at r.t. Appropriate controls (enzyme with no inhibitor or with a G12D inhibitor) were included on the plate. The exchange was initiated by the addition of a 5 μL/well volume containing 1 mM GppNHp and 300 nM SOS1 in assay buffer. The 10 μL/well reaction concentration of the bodipy-loaded KRAS G12D, GppNHp, and SOS1 were 2.5 nM, 500 μM, and 150 nM, respectively. The reaction plates were incubated at r.t. for 2 h, a time estimated for complete GDP-GTP exchange in the absence of inhibitor. For the KRAS G12V mutant, similar guanine nucleotide exchange assays were used with 2.5 nM as final concentration for the bodipy loaded KRAS proteins and 3 h incubation after adding GppNHp-SOS1 mixture. A cyclic peptide described to selectively bind G12D mutant (Sakamoto et al., BBRC 484.3 (2017), 605-611) or internal compounds with confirmed binding were used as positive controls in the assay plates. Fluorescence intensities were measured on a PheraStar plate reader instrument (BMG Labtech) with excitation at 485 nm and emission at 520 nm.
(§2) Either GraphPad prism or Genedata Screener SmartFit was used to analyze the data. The IC50 values were derived by fitting the data to a four parameter logistic equation producing a sigmoidal dose-response curve with a variable Hill coefficient.
(§3) The symbol “†” indicates IC50≤100 nM, “††” indicates IC50>100 nM but ≤1 μM; and “†††” indicates IC50 is >1 μM but ≤5 μM, “††††” indicates IC50 is >5 µM but ≤10 μM. “NA” indicates IC50 not available.

KRAS G12D = KRAS G12D (Homo sapiens, UniProt P01116, G12D); experiment: GDP-GTP exchange assay (bodipy-GDP/GppNHp, SOS1), KRAS G12D; type: biochemical; conditions: 2.5 nM bodipy-loaded KRAS G12D, 4 h pre-incubation, 2 h reaction with GppNHp and SOS1; for certain compounds the most potent isomer is quoted; read-out: KRAS_G12D exchange assay IC50
KRAS G12D, sequence (P01116 1-188 isoform P01116-2 G12D): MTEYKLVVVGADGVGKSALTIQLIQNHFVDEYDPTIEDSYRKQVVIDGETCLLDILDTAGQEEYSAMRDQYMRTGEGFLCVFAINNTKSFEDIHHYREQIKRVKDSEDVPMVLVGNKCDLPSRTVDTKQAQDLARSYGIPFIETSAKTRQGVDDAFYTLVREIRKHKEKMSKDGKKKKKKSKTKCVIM
Experimental: as §1, §2, §3

KRAS G12V, sequence (P01116 1-188 isoform P01116-2 G12V): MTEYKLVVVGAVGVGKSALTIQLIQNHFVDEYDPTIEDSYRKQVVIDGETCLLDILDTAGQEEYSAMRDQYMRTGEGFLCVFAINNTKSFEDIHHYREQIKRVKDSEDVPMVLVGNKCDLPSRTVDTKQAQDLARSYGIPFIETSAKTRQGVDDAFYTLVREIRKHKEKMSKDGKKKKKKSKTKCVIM

Structure (SMILES)	IC50 (KRAS G12V) [nM]	IC50 (KRAS G12D) [nM]
Cc1nc2c(F)c(-c3cccc(Cl)c3Cl)c(CCC#N)cc2c2c1cc([C@H]1[C@H]3C[C@H](C[C@@H]3F)N1C(=O)C1CC1)n2[C@H]1[C@H]2CN[C@@H]1C2 (atropisomer, axis not shown; (Ra)) [Example 2, 3-((Ra)-1-((1R,4R,5S)-2-Azabicyclo[2.1.1]hexan-5-yl)-2-((1R,3R,4R,5S)-2-(cyclopropanecarbonyl)-5-fluoro-2-azabicyclo[2.2.1]heptan-3-yl)-7-(2,3-dichlorophenyl)-6-fluoro-4-methyl-1H-pyrrolo[3,2-c]quinolin-8-yl)propanenitrile]	≤ 100	≤ 100
Cc1nc2c(F)c(-c3cccc(Cl)c3Cl)c(CCC#N)cc2c2c1cc([C@H]1[C@H]3CC[C@H](C3)N1C(=O)C1CC1)n2C1C2CNC1C2 (stereo partly drawn) [Example 25, 3-(1-(2-azabicyclo[2.1.1]hexan-5-yl)-2-((1R,3R,4S)-2-(cyclopropanecarbonyl)-2-azabicyclo[2.2.1]heptan-3-yl)-7-(2,3-dichlorophenyl)-6-fluoro-4-methyl-1H-pyrrolo[3,2-c]quinolin-8-yl)propanenitrile]	5000 to 10000	1000 to 5000
[2H]C([2H])([2H])O[C@H]1C[C@H]2C[C@@H]1[C@H](c1cc3c(C)nc4c(F)c(-c5cccc(Cl)c5Cl)c(CCC#N)cc4c3n1C1[C@H]3CN[C@@H]1C3)N2C(=O)C1CC1 (stereo partly drawn) [Example 23, 3-(1-((1R,4R)-2-azabicyclo[2.1.1]hexan-5-yl)-2-((1R,3R,4R,5S)-2-(cyclopropanecarbonyl)-5-(methoxy-d3)-2-azabicyclo[2.2.1]heptan-3-yl)-7-(2,3-dichlorophenyl)-6-fluoro-4-methyl-1H-pyrrolo[3,2-c]quinolin-8-yl)propanenitrile]	≤ 100	≤ 100
Cc1nc2c(F)c(-c3cccc(Cl)c3Cl)c(CCC#N)cc2c2c1cc([C@H]1[C@H]3C[C@H]([C@@H]4C[C@@H]43)N1C(=O)C1CC1)n2C1C2CNC1C2 (stereo partly drawn) [Example 24, 3-(1-(2-azabicyclo[2.1.1]hexan-5-yl)-2-((1S,2S,4R,5R,7R)-6-(cyclopropanecarbonyl)-6-azatricyclo[3.2.1.02,4]octan-7-yl)-7-(2,3-dichlorophenyl)-6-fluoro-4-methyl-1H-pyrrolo[3,2-c]quinolin-8-yl)propanenitrile]	≤ 100	≤ 100
Cc1nc2c(F)c(-c3cccc(Cl)c3Cl)c(CCC#N)cc2c2c1cc([C@H]1[C@H]3C[C@H](C[C@@H]3OC(F)F)N1C(=O)C1(F)CC1)n2[C@H]1[C@H]2CN[C@@H]1C2 [Example 35, 3-(1-((1R,4R,5S)-2-Azabicyclo[2.1.1]hexan-5-yl)-7-(2,3-dichlorophenyl)-2-((1R,3R,4R,5S)-5-(difluoromethoxy)-2-(1-fluorocyclopropane-1-carbonyl)-2-azabicyclo[2.2.1]heptan-3-yl)-6-fluoro-4-methyl-1H-pyrrolo[3,2-c]quinolin-8-yl)propanenitrile]		≤ 100

The next lines start with the values.

IC50 (KRAS G12V) [nM]	IC50 (KRAS G12D) [nM]	Structure (SMILES)
≤ 100	≤ 100	Cc1nc2c(F)c(-c3cccc(Cl)c3Cl)c(CCC#N)cc2c2c1cc([C@H]1[C@H]3C[C@H](C[C@@H]3F)N1C(=O)C1CC1)n2C1[C@H]2CN[C@@H]1C2 (stereo partly drawn) [Example 20, 3-(1-((1R,4R)-2-azabicyclo[2.1.1]hexan-5-yl)-2-((1R,3R,4R,5S)-2-(cyclopropanecarbonyl)-5-fluoro-2-azabicyclo[2.2.1]heptan-3-yl)-7-(2,3-dichlorophenyl)-6-fluoro-4-methyl-1H-pyrrolo[3,2-c]quinolin-8-yl)propanenitrile]
≤ 100	≤ 100	Cc1nc2c(F)c(-c3cccc(Cl)c3Cl)c(CCC#N)cc2c2c1cc([C@H]1[C@H]3C[C@H](C[C@@H]3OC(F)F)N1C(=O)C1CC1)n2[C@H]1[C@H]2CN[C@@H]1C2 (atropisomer, axis not shown; (Ra)) [Example 7, 3-((Ra)-1-((1R,4R,5S)-2-Azabicyclo[2.1.1]hexan-5-yl)-2-((1R,3R,4R,5S)-2-(cyclopropanecarbonyl)-5-(difluoromethoxy)-2-azabicyclo[2.2.1]heptan-3-yl)-7-(2,3-dichlorophenyl)-6-fluoro-4-methyl-1H-pyrrolo[3,2-c]quinolin-8-yl)propanenitrile]
≤ 100	≤ 100	C[C@@H](O)c1nc2c(F)c(-c3cccc(Cl)c3Cl)c(CCC#N)cc2c2c1cc([C@H]1[C@H]3C[C@H](C[C@@H]3OC(F)F)N1C(=O)C1(F)CC1)n2[C@H]1[C@H]2CN[C@@H]1C2 (single isomer, unassigned) [Example 37]
≤ 100	≤ 100	CNC(=O)c1ccc(-c2nc3c(F)c(-c4cccc(Cl)c4Cl)c(CCC#N)cc3c3c2cc([C@H]2[C@@H]4CC[C@@H](C4)N2C(=O)C2CC2)n3[C@H]2[C@H]3CN[C@@H]2C3)cc1F [Example 14, 4-(1-((1R,4R,5S)-2-azabicyclo[2.1.1]hexan-5-yl)-8-(2-cyanoethyl)-2-((1S,3R,4R)-2-(cyclopropanecarbonyl)-2-azabicyclo[2.2.1]heptan-3-yl)-7-(2,3-dichlorophenyl)-6-fluoro-1H-pyrrolo[3,2-c]quinolin-4-yl)-2-fluoro-N-methylbenzamide]
100 to 1000	100 to 1000	Cc1nc2c(F)c(-c3cccc(Cl)c3Cl)c(CCC#N)cc2c2c1cc([C@H]1[C@H]3C[C@H](C[C@H]3O)N1C(=O)C1CC1)n2C1[C@H]2CN[C@@H]1C2 (stereo partly drawn) [Example 21, 3-(1-((1R,4R)-2-azabicyclo[2.1.1]hexan-5-yl)-2-((1R,3R,4R,5R)-2-(cyclopropanecarbonyl)-5-hydroxy-2-azabicyclo[2.2.1]heptan-3-yl)-7-(2,3-dichlorophenyl)-6-fluoro-4-methyl-1H-pyrrolo[3,2-c]quinolin-8-yl)propanenitrile]
≤ 100	≤ 100	Cc1nc2c(F)c(-c3cccc(Cl)c3Cl)c(CCC#N)cc2c2c1cc([C@H]1[C@H]3C[C@H](C[C@@H]3Oc3ccccn3)N1C(=O)C1CC1)n2C1[C@H]2CN[C@@H]1C2 (stereo partly drawn) [Example 28, 3-(1-((1R,4R)-2-azabicyclo[2.1.1]hexan-5-yl)-2-((1R,3R,4R,5S)-2-(cyclopropanecarbonyl)-5-(pyridin-2-yloxy)-2-azabicyclo[2.2.1]heptan-3-yl)-7-(2,3-dichlorophenyl)-6-fluoro-4-methyl-1H-pyrrolo[3,2-c]quinolin-8-yl)propanenitrile]
	≤ 100	CO[C@H]1C[C@H]2C[C@@H]1[C@H](c1cc3c(C)nc4c(F)c(-c5cccc(Cl)c5Cl)c(CCC#N)cc4c3n1[C@H]1[C@H]3CN[C@@H]1C3)N2C(=O)C1CC1 (atropisomer, axis not shown; (Ra)) [Example 1, 3-((Ra)-1-((1R,4R,5S)-2-Azabicyclo[2.1.1]hexan-5-yl)-2-((1R,3R,4R,5S)-2-(cyclopropanecarbonyl)-5-methoxy-2-azabicyclo[2.2.1]heptan-3-yl)-7-(2,3-dichlorophenyl)-6-fluoro-4-methyl-1H-pyrrolo[3,2-c]quinolin-8-yl)propanenitrile]
